{
  "source": "patent US20260199481A1",
  "about": "“PROTEIN DEGRADATION TARGETING CHIMERA COMPOUND, COMPOSITION THEREOF, AND USE THEREOF” (TSINGHUA UNIVERSITY, priority 2022, published 2026)",
  "key": {"MCF-7 cells [1]": {"tested_on": "MCF-7 cells", "assay": "In vitro anti-tumor effect, CellTiter 96 viability assay", "type": "cell-based", "settings": "Homo sapiens, MCF7, light or radiation study", "experimental": "Experimental Procedure: MCF-7 cells in the logarithmic growth phase were used for the experiment. The cells were seeded at 5000 cells per well in 96-well plates and incubated for 24 hours at 37° C. The cells were treated with Example compounds A1-D3 for 3 h. Subsequently, the irradiated group was irradiated with 10-30 Gy of X-rays, and the cells were continued to be incubated until 72 h after completion of irradiation. At the end of drug treatment, 20 μL of CellTiter 96° solution was added to each well. The well plates were incubated in an incubator for 2-4 hours, and then the absorbance was measured using a plate reader. Data were analyzed with GraphPad Prism software to obtain the IC50 values of each test compound."}, "BRD4": {"target": "T1, BRD4 (Homo sapiens, UniProt O60885)", "T1 construct": "endogenous in cells; host or cells: MCF-7", "assay": "Protein degradation activity, Western blotting of BRD4 in MCF-7 cells", "type": "cell-based", "experimental": "Cell treatment: MCF-7 cells in the logarithmic growth phase were taken for the experiment. Cells were inoculated in six-well plates at a density of 5.0×10^5 cells/per well and incubated at 37° C. for 24 hours. […]\nWhole cell protein extraction: After completion of drug treatment, the culture medium was discarded, and the cells were washed 3 times with pre-cooled PBS. Cells were scraped off using a cell scraper, and the resulting solution was carefully aspirated and centrifuged at 300 g for 5 min at 4° C. to obtain cells, which were washed with PBS, resuspended, and centrifuged under the same conditions.\nCell lysis: Cells were washed with pre-cooled PBS and lysed in pre-cooled lysis buffer (containing 1% protease and phosphatase inhibitor) for 30 min, and cells were vigorously vortexed several times during lysis. After lysis was completed, the cells were centrifuged at 11,000 g for 15 min at 4° C., and the supernatant was collected as whole cell protein.\nProtein denaturation: protein concentration was measured by Bradford assay. Proteins were diluted using 4× Protein Sampling Buffer. Subsequently, the proteins were denatured by heating in a metal bath at 100° C. for 15 min.\nProtein Immunoblotting Assay (Western Blotting, WB) was Performed to Quantify BRD4 Protein:\n1) Protein electrophoresis: proteins were separated in 4-12% or 4-20% Bis-Tris SDS-PAGE gels. The appropriate volume of the above cell whole protein extract was added to the lanes of the above SDS-PAGE gel. Turn on the power and electrophoresis at 120 V for 15 minutes, then adjust the voltage to 180 V and continue electrophoresis until the loading buffer reaches the lowest end of the gel.\n(2) Membrane transfer: After electrophoresis, remove the gel, cut a PVDF membrane […] of the appropriate size and activate the membrane with anhydrous methanol, and install the membrane transfer device in the following order from the negative pole to the positive pole: sponge cushion, gel, PVDF membrane, sponge cushion. After installing the membrane transfer device, place it in the corresponding membrane transfer tank, check the liquid level of the solution required for membrane transfer, turn on the power, and complete the membrane transfer after 3 transfer cycles.\n3) Blocking: Place the membrane in QuickBlock™ Western Blocking Buffer and shake it for 20 minutes at room temperature.\n4) Primary antibody incubation: After the blocking, discard the blocking solution, add the primary antibody diluted to the appropriate concentration, and gently shake the membrane overnight at 4° C. After completing the incubation, wash the membrane 4 times with 1×TBST for 5 min/time.\n(5) Secondary antibody incubation: Add secondary antibody diluted to the appropriate concentration and gently shake the PVDF membrane for 1 hour at room temperature. After incubation, the membrane was washed 4 times with 1×TBST for 5 min/time.\n6) Developing: Prepare the ECL developing solution before developing. Lay the PVDF membrane flat on a clean plastic wrap, add the developer solution to the membrane, and let it stand for 1 minute away from light. Subsequently, the PVDF membrane was imaged on a gel system."}, "MCF-7 cells [2]": {"tested_on": "MCF-7 cells", "assay": "Annexin V/PI double staining for apoptosis detection", "type": "cell-based", "settings": "FIG. 6", "from_the_text": "The surface of normal cells consists of lipids distributed asymmetrically on the inner and outer leaflets of the plasma membrane. One of them, phosphatidylserine (PS), is normally distributed only on the inner leaflet of the plasma membrane, and is therefore exposed only to the cytoplasm. However, when cells undergo apoptosis, PS is exposed on the outer leaflets of the plasma membrane. Annexin V is a phospholipid-binding protein capable of binding to PS. Therefore, fluorescently labeled Annexin V can be used to detect PS exposed to the outer leaflets of early apoptotic cells. By co-staining with propidium iodide (PI), Annexin V-PI can distinguish normal living cells, early apoptotic cells, and late apoptotic cells. Cell treatment: MCF-7 cells in the logarithmic growth phase were taken for the experiment. Cells were inoculated in six-well plates at a density of 5.0×10^5 cells/per well and incubated at 37° C. for 24 hours. Cells were treated with Example PROTAC drug AS2 and PROTAC prodrug A1 for 3 h, followed by X-ray irradiation, and cells continued to be cultured until 48 h after completion of irradiation. Cell collection: Collect the culture medium in a 1.5 mL centrifuge tube for spare. […] After incubation for 15 min at room temperature away from light, fluorescence detection was carried out by flow cytometry."}, "MCF-7 cell line": {"tested_on": "MCF-7 cell line", "assay": "In vivo anti-tumor activity, MCF-7 tumor model", "design": "species or system BALB/c nude mice", "settings": "10 mg/kg subcutaneous injection", "experimental": "To investigate the in vivo activation and antitumor activity of the PROTAC compound AS2 and X-ray-responsive PROTAC compound A1, we performed in vivo antitumor activity studies. The MCF-7 cell line was selected, and experiments were performed in BALB/c nude mice. Experimental animals: BALB/c nude mice (female; 6-8 weeks old) were all purchased from Beijing Vital River Laboratory Animal Technology Co., Ltd and housed in pathogen-free conditions with standard temperature and humidity at the Laboratory Animal Resources Center of Tsinghua University. All animal experiments were approved by the Animal Ethics Committee of Tsinghua University. Tumor model establishment: MCF-7 cells in logarithmic growth phase were taken, and 0.25% trypsin was added to digest the cells after washing the cells for 3 times with pre-cooled PBS buffer. The digested cells were centrifuged at 1000 rpm/min for 5 min, the precipitate was discarded, and the cells were resuspended with pre-cooled PBS and carefully blown to make a single-cell solution. After the cells were counted by a counter, the cell density was adjusted to 1×10^7 cells/mL, and 10 mL was taken into a centrifuge tube and stored on ice. Before inoculation of cancer cells, nude mice were gently wiped under the skin of the right axilla with a paper towel sprayed with 75% alcohol. A 1 mL disposable syringe was used to aspirate 200 μL of cell suspension, and the air in the needle was removed, and a single subcutaneous injection was carried out by puncturing about 1 cm forward from the needle inlet site. The needle was withdrawn slowly to avoid fluid leakage. Observe the tumor growth status daily. Drug administration: When the tumor volume reached 120 mm^3, the tumor-bearing mice were randomly grouped. Six groups were set up, namely PBS, PROTAC drug AS2, PROTAC prodrug A1, PBS+X-ray irradiation, PROTAC drug AS2+X-ray irradiation, and PROTAC prodrug A1+X-ray irradiation. Each drug was dispersed in the following solution: 1.25% DMSO+20% PEG+5% Tween 80+73.75% dd H2O; administered dose: 10 mg/kg; subcutaneous injection. X-ray irradiation was performed 3 hours after drug injection. The irradiation dose was 5 Gy. Tumor size and body weight were monitored every other day. Tumor volume was calculated using the formula: tumor volume=length×width^2/2. After 16 days of monitoring, mice in each group were euthanized, and tumors and major organs were collected."}},
  "note": "Like-named read-outs stand apart in the source and are kept apart here.",
  "data": [
    {"smiles": "Cc1ncsc1-c1ccc([C@H](C)NC(=O)[C@@H]2C[C@@H](OC(=O)OCc3c(F)c(F)c(N=[N+]=[N-])c(F)c3F)CN2C(=O)[C@H](NC(=O)COCCOCCOCCNC(=O)C[C@@H]2N=C(c3ccc(Cl)cc3)c3c(sc(C)c3C)-n3c(C)nnc32)C(C)(C)C)cc1", "note": "[Compound A1]", "values": [
      {"measurement": "IC50", "setting": "MCF-7 cells [1]; compound 3 h, then X-rays 10 Gy or 30 Gy, 72 h after irradiation, read-out: Irradiation with 10 Gy or 30 Gy IC50", "value": 122, "unit": "nM"},
      {"measurement": "IC50", "setting": "MCF-7 cells [1]; no irradiation, 72 h incubation, read-out: Radiation-free IC50", "value": 1020, "unit": "nM"},
      {"measurement": "BRD4 degradation", "setting": "BRD4; co-treated with X-ray irradiation, 10 nM prodrug, FIG. 5", "value": "> 50", "unit": "%"},
      {"measurement": "degradation activity on BRD4 with X-ray irradiation", "setting": "BRD4; co-treated with X-ray irradiation, FIG. 5", "value": "significantly degraded"},
      {"measurement": "degradation activity on BRD4 prior to activation", "setting": "BRD4; no irradiation, 0-300 nM, FIG. 4", "value": "failed to degrade BRD4"},
      {"measurement": "ability to induce apoptosis", "setting": "MCF-7 cells [2]; X-rays and compound together, 48 h after irradiation", "value": "significantly elevated early apoptotic and late apoptotic cells"},
      {"measurement": "ability to induce apoptosis", "setting": "MCF-7 cells [2]; without X-ray irradiation", "value": "comparable to that of control DMSO"},
      {"measurement": "tumor growth (tumor volume)", "setting": "MCF-7 cell line; X-ray 5 Gy 3 hours after drug injection", "value": "enhance the efficacy of radiation therapy"},
      {"measurement": "tumor growth (tumor volume)", "setting": "MCF-7 cell line; no irradiation, compared with PBS group", "value": "failed to inhibit the tumor growth"}
    ]}
  ]
}
